We go through 24 molecules from patent publication US7932262B2 (Novartis AG, priority 2006, dated 2011).

pEC50, pIC50: −log10 of the molar value. A value given as a limit tells only on which side of the number the result lay.

One assay relates to PC-3 cells. As to the kind of experiment: Cell Proliferation Assay (Cell Titer Glo), PC-3 cell line. Type of assay: cell-based. To be noted: Homo sapiens, PC-3, Cell Proliferation Assay, PC3; read-out: CPEC50 PC3. A digest of the protocol:
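PC-3 cells, 1000 cells/well, left to adhere 3-5 h, then exposed for 3 days at 37° C to compounds as 1:3 serial dilutions from 500× DMSO stocks diluted in growth medium. Medium then replaced with fresh medium and viability read by Cell Titer Glo luminescence.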

For the next assay, the target named is T1, PDK1 kinase (Homo sapiens, UniProt O15530).
T1 sequence (O15530 1-556): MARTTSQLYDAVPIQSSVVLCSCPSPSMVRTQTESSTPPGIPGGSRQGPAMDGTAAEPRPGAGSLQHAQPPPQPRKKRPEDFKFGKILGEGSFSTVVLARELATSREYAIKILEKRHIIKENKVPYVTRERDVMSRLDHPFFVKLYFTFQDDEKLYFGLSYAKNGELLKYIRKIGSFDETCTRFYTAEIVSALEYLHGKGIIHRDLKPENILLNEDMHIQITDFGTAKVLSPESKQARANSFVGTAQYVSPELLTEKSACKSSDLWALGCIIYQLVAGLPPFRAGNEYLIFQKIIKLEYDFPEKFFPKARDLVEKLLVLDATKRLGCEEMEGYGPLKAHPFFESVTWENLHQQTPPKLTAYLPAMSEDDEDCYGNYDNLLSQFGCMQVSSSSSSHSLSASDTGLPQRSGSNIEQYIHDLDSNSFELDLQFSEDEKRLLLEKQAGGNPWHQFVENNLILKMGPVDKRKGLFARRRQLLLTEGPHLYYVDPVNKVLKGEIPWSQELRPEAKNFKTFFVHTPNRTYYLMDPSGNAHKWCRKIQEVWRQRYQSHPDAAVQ
The experiment in a line: PDK1 Kinase Alpha Screen Assay. In kind it is biochemical. To be noted: PDK1 Kinase Alpha Screen Assay; read-out: PDK1 IC50. Summed up:
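PDK1 phosphorylated 50 nM biotinylated PDK1-4 peptide with 10 uM ATP in Tris pH 7.5, 10 mM MgCl2, 2 mM DTT, 2.5% DMSO for 3-18 hours. After EDTA stop, phosphopeptide was detected by AlphaScreen using phospho-(Ser/Thr) PKA substrate antibody with protein A/streptavidin beads, read after overnight incubation.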

For the molecule `O=S(=O)(c1ccc(Nc2ncc3cccc(-c4ccc(NCCN5CCCC5)nc4)c3n2)cc1)N1CCOCC1` [Compound 425, N-(4-(morpholinosulfonyl)phenyl)-8-(6-(2-(pyrrolidin-1-yl)ethylamino)pyridine-3-yl)quinazolin-2-amine], the pEC50 in the assay on PC-3 cells is more than 5.30. For the same molecule, the pIC50 at PDK1 kinase is more than 5.30.
As for `c1ccc(Nc2ncc3cccc(-c4ccc(NCCN5CCCC5)nc4)c3n2)cc1` [Compound 426, N-phenyl-8-(6-(2-(pyrrolidin-1-yl)ethylamino)pyridin-3-yl)quinazolin-2-amine], the pEC50 in the assay on PC-3 cells was more than 5.30. At PDK1 kinase, the pIC50 was more than 5.30.
As to `N#Cc1ccc(Nc2ncc3cccc(-c4ccc(NCCN5CCCC5)nc4)c3n2)cc1` [Compound 427, 4-(8-(6-(2-(pyrrolidin-1-yl)ethylamino)pyridin-3-yl)quinazolin-2-ylamino)benzonitrile], in the assay with PC-3 cells, the pEC50 was more than 5.30. In addition, on PDK1 kinase, the pIC50 is more than 5.30.
Take `Fc1cc(F)cc(Nc2ncc3cccc(-c4ccc(NCCN5CCCC5)nc4)c3n2)c1` [Compound 428, N-(3,5-difluorophenyl)-8-(6-(2-(pyrrolidin-1-yl)ethylamino)pyridin-3-yl)quinazolin-2-amine]: the pEC50 in the assay with PC-3 cells was more than 5.30. On PDK1 kinase, the pIC50 was more than 5.30.
As for `NS(=O)(=O)c1ccc(Nc2ncc3c(Br)ccc(OC4CCNCC4)c3n2)cc1` [Compound 429, 4-(5-bromo-8-(piperidin-4-yloxy)quinazolin-2-ylamino)benzenesulfonamide], the pEC50 in the assay with PC-3 cells was 5.00 to 5.30. For the same molecule, the pIC50 at PDK1 kinase was more than 5.30.
Consider `O=S(=O)(c1ccc(Nc2ncc3c(Br)ccc(OC4CCNCC4)c3n2)cc1)N1CCOCC1` [Compound 430, 5-bromo-N-(4-(morpholinosulfonyl)phenyl)-8-(piperidin-4-yloxy)quinazolin-2-amine], for which the pEC50 with PC-3 cells is more than 5.30. In addition, the pIC50 on PDK1 kinase was more than 5.30.
Turning to `Fc1cc(Nc2ncc3cccc(-c4ccc(NCCN5CCCC5)nc4)c3n2)ccc1N1CCOCC1` [Compound 431, N-(3-fluoro-4-morpholinophenyl)-8-(6-(2-(pyrrolidin-1-yl)ethylamino)pyridine-3-yl)quinazolin-2-amine], in the assay on PC-3 cells, the pEC50 was more than 5.30. Also, the negative-log IC50 (pIC50) at PDK1 kinase is more than 5.30.
Take `CN1CCN(c2ccc(-c3cccc4cnc(Nc5ccc(N6CCOCC6)c(F)c5)nc34)cn2)CC1` [Compound 432, N-(3-fluoro-4-morpholinophenyl)-8-(6-(4-methylpiperazin-1-yl)pyridin-3-yl)quinazolin-2-amine]: the pEC50 in the assay on PC-3 cells is more than 5.30. Also, the pIC50 at PDK1 kinase is more than 5.30.
Consider `Fc1cccc(Nc2ncc3c(Br)ccc(OC4CCNCC4)c3n2)c1` [Compound 433, 5-bromo-N-(3-fluorophenyl)-8-(piperidin-4-yloxy)quinazolin-2-amine], for which the pEC50 in the assay on PC-3 cells was more than 5.30. For the same molecule, the pIC50 on PDK1 kinase was more than 5.30.
With `Fc1ccc(Nc2ncc3c(Br)ccc(OC4CCNCC4)c3n2)cc1` [Compound 434, 5-bromo-N-(4-fluorophenyl)-8-(piperidin-4-yloxy)quinazolin-2-amine], the pEC50 in the assay with PC-3 cells is more than 5.30. The pIC50 at PDK1 kinase is more than 5.30.
In the case of `Brc1ccc(OC2CCNCC2)c2nc(Nc3ccc(N4CCOCC4)cc3)ncc12` [Compound 435, 5-bromo-N-(4-morpholinophenyl)-8-(piperidin-4-yloxy)quinazolin-2-amine], the pEC50 in the assay with PC-3 cells was 5.00 to 5.30. Moreover, on PDK1 kinase, the pIC50 is more than 5.30.
For `CN1CCN(c2ccc(-c3cccc4cnc(Nc5ccc(C(F)(F)F)nc5)nc34)cn2)CC1` [Compound 436, 8-(6-(4-methylpiperazin-1-yl)pyridin-3-yl)-N-(6-(trifluoromethyl)pyridine-3-yl)quinazolin-2-amine], in the assay with PC-3 cells, the pEC50 is more than 5.30. For the same molecule, the pIC50 at PDK1 kinase was more than 5.30.
For `O=S(=O)(c1cccc(Nc2ncc3c(Br)ccc(OC4CCNCC4)c3n2)c1)N1CCOCC1` [Compound 437, 5-bromo-N-(3-(morpholinosulfonyl)phenyl)-8-(piperidin-4-yloxy)quinazolin-2-amine], the pEC50 in the assay on PC-3 cells was more than 5.30. Further, the pIC50 at PDK1 kinase is 5.00 to 5.30.
`O=C(c1ccc(Nc2ncc3c(Br)ccc(OC4CCNCC4)c3n2)cc1)N1CCOCC1` [Compound 438, (4-(5-bromo-8-(piperidin-4-yloxy)quinazolin-2-ylamino)phenyl)(morpholino)methanone]: the pEC50 in the assay with PC-3 cells was more than 5.30. For the same molecule, the negative logarithm of the IC50 (pIC50) at PDK1 kinase is more than 5.30.
On to `CC(C)NC(=O)c1ccc(Nc2ncc3cccc(OC4CCNCC4)c3n2)cc1F` [Compound 439, 2-fluoro-N-isopropyl-4-(8-(piperidin-4-yloxy)quinazolin-2-ylamino)benzamide], for which the pEC50 in the assay with PC-3 cells is more than 5.30. In addition, on PDK1 kinase, the negative logarithm of the IC50 (pIC50) is more than 5.30.
On to `O=C(NC1CCOCC1)c1ccc(Nc2ncc3cccc(OC4CCNCC4)c3n2)cc1F` [Compound 440, 2-fluoro-4-(8-(piperidin-4-yloxy)quinazolin-2-ylamino)-N-(tetrahydro-2H-pyran-4-yl)benzamide], for which the pEC50 in the assay on PC-3 cells is more than 5.30. Moreover, at PDK1 kinase, the pIC50 is more than 5.30.
For the molecule `O=C(O)c1ccc(Nc2ncc3cccc(OC4CCNCC4)c3n2)cc1F` [Compound 441, 2-fluoro-4-(8-(piperidin-4-yloxy)quinazolin-2-ylamino)benzoic acid], the pEC50 with PC-3 cells was 5.00 to 5.30. Besides, the pIC50 at PDK1 kinase was more than 5.30.
In the same order, the values of `CC(=O)Nc1cccc(Nc2ncc3cccc(-c4ccc(N5CCN(C)CC5)nc4)c3n2)c1` [Compound 442, N-(3-(8-(6-(4-methylpiperazin-1-yl)pyridin-3-yl)quinazolin-2-ylamino)phenyl)acetamide] are more than 5.30 and more than 5.30.
The matching figures for `CN1CCN(c2ccc(-c3cccc4cnc(Nc5cccc(-c6cnco6)c5)nc34)cn2)CC1` [Compound 443, 8-(6-(4-methylpiperazin-1-yl)pyridin-3-yl)-N-(3-(oxazol-5-yl)phenyl)quinazolin-2-amine]: more than 5.30 and more than 5.30.
Regarding `O=C(NC1CC1)c1ccc(Nc2ncc3cccc(OC4CCNCC4)c3n2)cc1F` [Compound 444, N-cyclopropyl-2-fluoro-4-(8-(piperidin-4-yloxy)quinazolin-2-ylamino)benzamide], the pEC50 with PC-3 cells was more than 5.30. Further, the pIC50 on PDK1 kinase was more than 5.30.
Take `COCCNC(=O)c1ccc(Nc2ncc3cccc(OC4CCNCC4)c3n2)cc1F` [Compound 445, 2-fluoro-N-(2-methoxyethyl)-4-(8-(piperidin-4-yloxy)quinazolin-2-ylamino)benzamide]: in the assay with PC-3 cells, the pEC50 was more than 5.30. Besides, the pIC50 at PDK1 kinase was more than 5.30.
Turning to `CN(C)C(=O)c1ccc(Nc2ncc3cccc(OC4CCNCC4)c3n2)cc1F` [Compound 446, 2-fluoro-N,N-dimethyl-4-(8-(piperidin-4-yloxy)quinazolin-2-ylamino)benzamide], the pEC50 with PC-3 cells is more than 5.30. Moreover, the pIC50 at PDK1 kinase is more than 5.30.
`O=C(c1ccc(Nc2ncc3cccc(OC4CCNCC4)c3n2)cc1F)N1CCOCC1` [Compound 447, (2-fluoro-4-(8-(piperidin-4-yloxy)quinazolin-2-ylamino)phenyl)(morpholino)methanone]: the pEC50 in the assay on PC-3 cells is more than 5.30. Also, the pIC50 on PDK1 kinase was more than 5.30.
`NC(=O)c1cc(Nc2ncc3cccc(OC4CCNCC4)c3n2)ccc1N1CCOCC1` [Compound 448, 2-morpholino-5-(8-(piperidin-4-yloxy)quinazolin-2-ylamino)benzamide]: the pEC50 in the assay with PC-3 cells was 5.00 to 5.30. Also, the pIC50 at PDK1 kinase is more than 5.30.
